Several values for one entry are separate records, joined by “and”; a condition that tells them apart may be missing. Equal entries are not always repeated. Where two headings read alike, the source gives them in different places.
Assay: Single oral dose pharmacokinetic study of eliglustat tartrate in mild or moderate hepatic impairment and matched healthy subjects (Example 1)
Type: in vivo, human
Settings: for AUC(0-inf) / AUC(0-t) / Cmax / Vd/F / Tmax: human, 100 mg
Experimental: A multi-center, open-label, single oral dose study of eliglustat tartrate administered to mild or moderate HI and normal hepatic function (healthy) matched (by body weight and cytochrome P450 [CYP] 2D6 phenotype) subjects was carried out to study the effect of mild and moderate hepatic impairment (HI) on the pharmacokinetics (PK) of eliglustat.
Approximately 8 subjects were planned to be enrolled into each HI group (mild or moderate HI) and 8 subjects with normal hepatic function matched to impaired subjects by weight and CYP2D6 phenotype. At least 6 CYP2D6 extensive metabolizers (EMs) were to be enrolled into each impairment group, with the remaining 2 subjects enrolled according to the following preference: at least 20 subjects were to be screened for each impairment group and if identified, up to 2 CYP2D6 poor metabolizers (PMs) were enrolled. If less than 2 PMs were identified, up to 2 CYP2D6 intermediate metabolizers (IMs) were to be enrolled for a total of 8 subjects per group. If less than 2 PMs or IMs were identified, up to 2 additional EMs were to be enrolled for a total of 8 subjects per group. If 2 PMs were identified prior to screening 20 subjects, screening may have been discontinued. If an eligible PM subject was identified after satisfying the above requirements and enrolling 8 subjects for an impairment group, this subject may still have been enrolled for that impairment group.
CYP2D6 EMs and IMs were to receive a single 100-mg dose of eliglustat tartrate, while CYP2D6 PMs were to receive a single 50-mg dose of eliglustat tartrate.
For HI subjects: Male (body weight between 50.0 and 125.0 kg, inclusive) or female subjects (body weight between 40.0 and 110.0 kg, inclusive) between 18 and 79 years, inclusive, with a body mass index between 18.0 and 37 kg/m^2, inclusive; having stable chronic liver disease assessed by medical history, physical examination, and laboratory values; with moderate HI (defined as Child-Pugh score of 7 to 9, inclusive) or mild HI (defined as Child-Pugh score of 5 to 6, inclusive). For healthy subjects: Male or female subjects, between 18 and 79 years, inclusive; body weight within 15% of the body weight of matched subjects with HI, and body mass index between 18.0 and 37 kg/m^2, inclusive; healthy subjects were also matched to HI groups by CYP2D6 phenotype predicted from genotype.
A single 100-mg capsule of eliglustat tartrate (equivalent to 84 mg of eliglustat) was administered to CYP2D6 EM or IM subjects with mild or moderate HI and matching healthy subjects.
Pharmacokinetics: The following PK parameters were calculated for eliglustat plasma concentrations using noncompartmental methods: Maximum plasma concentration observed (Cmax), area under the plasma concentration versus time curve calculated using the trapezoidal method from time zero to the time corresponding to the last quantifiable concentration tlast (AUClast), time to reach Cmax(tmax), area under the plasma concentration versus time curve extrapolated to infinity (AUC), terminal half-life associated with the terminal slope λz (t1/2z), time corresponding to the last concentration above the limit of quantification (tlast), apparent total body clearance of a drug from the plasma (CL/F), and apparent volume of distribution during the terminal (λz) phase (Vz/F).
Blood samples were collected at the following timepoints to assess plasma concentrations of eliglustat: predose and 0.5, 1, 1.5, 2, 2.5, 3, 4, 6, 8, 10, 12, 24, 36, and 48 hours postdose.
Eliglustat concentrations in plasma were determined using a validated liquid chromatography-tandem mass spectrometry method with a lower limit of quantification of 0.2 ng/mL.
Eliglustat PK parameters were summarized using descriptive statistics for each population group and for each CYP2D6 phenotype. […]

[1] = CYP2D6 EM, healthy, N=7, single 100 mg eliglustat tartrate oral, plasma
[2] = CYP2D6 EM, mild HI, N=6, single 100 mg eliglustat tartrate oral, plasma
[3] = CYP2D6 EM, moderate HI, N=7, single 100 mg eliglustat tartrate oral, plasma
[4] = CYP2D6 IM, healthy, N=1, single 100 mg eliglustat tartrate oral, plasma
[5] = CYP2D6 IM, mild HI, N=2, single 100 mg eliglustat tartrate oral, plasma
[6] = CYP2D6 IM, moderate HI, N=1, single 100 mg eliglustat tartrate oral, plasma
[7] = Mild HI vs Healthy, CYP2D6 EM subjects, single 100 mg eliglustat tartrate
[8] = Moderate HI vs Healthy, CYP2D6 EM subjects, single 100 mg eliglustat tartrate

For `CCCCCCCC(=O)N[C@H](CN1CCCC1)[C@H](O)c1ccc2c(c1)OCCO2` [eliglustat, N-((1R,2R)-1-(2,3-dihydrobenzo[b][1,4]dioxin-6-yl)-1-hydroxy-3-(pyrrolidin-1-yl)propan-2-yl)octanamide], the “CL/F, geometric mean” value [1] was “(1420) [40.1] L/h”, the “CL/F, mean ± SD” value [1] was 1570 ± 628 L/h and the “t1/2z, geometric mean” value [1] was “(7.03) [12.5] h”. The “t1/2z, mean ± SD” value [1] was 7.08 h and 7.08 ± 0.881 h, the “tlast, median” value [1] was 24.00 h and the “CL/F, geometric mean” value [2] was “(1230) [72.8]^ L/h”. The “CL/F, mean ± SD” value [2] was 1980 ± 1440 L/h, the “t1/2z, geometric mean” value [2] was “(7.13) [20.1] h” and the “t1/2z, mean ± SD” value [2] was 7.25 ± 1.46 h. The “tlast, median” value [2] was 30.00 h, the “CL/F, geometric mean” value [3] was “(275) [70.9] L/h” and the “CL/F, mean ± SD” value [3] was 416 ± 295 L/h. For the same molecule, the “t1/2z, geometric mean” value [3] was “(10.3) [21.4]^ h”, the “t1/2z, mean ± SD” value [3] was 10.5 h and 10.5 ± 2.25 h and the “tlast, median” value [3] was 48.00 h. It also gave a CL/F [4] of 146 L/h, a t1/2z [4] of 8.48 h and a tlast [4] of 48.00 h. The “CL/F, mean” value [5] was 306 L/h, the “t1/2z, mean” value [5] was 9.34 h and the tlast [5] was 48.00 h. It also gave a CL/F [6] of 406 L/h, a t1/2z [6] of 5.87 h and a tlast [6] of 24.00 h. The “AUC geometric mean ratio, point estimate” value [7] was 1.15, the “AUClast geometric mean ratio, point estimate” value [7] was 1.18 and the “CL/F geometric mean ratio, point estimate” value [7] was 0.87. The “Cmax geometric mean ratio, point estimate” value [7] was 1.22, the “Vz/F geometric mean ratio, point estimate” value [7] was 0.88 and the “AUC geometric mean ratio, point estimate” value [8] was 5.16. The “AUClast geometric mean ratio, point estimate” value [8] was 5.35, the “CL/F geometric mean ratio, point estimate” value [8] was 0.19 and the “Cmax geometric mean ratio, point estimate” value [8] was 2.81. For the same molecule, the “Vz/F geometric mean ratio, point estimate” value [8] was 0.28, the “t1/2z geometric mean ratio, point estimate” value [8] was 1.47 and the AUC(0-inf) (both sexes, plasma, oral, CYP2D6 IM, healthy, N=1, single 100 mg eliglustat tartrate oral, plasma, read-out: AUC (extrapolated to infinity)) was 578 ng·h/mL. For the same molecule, the AUC(0-inf) (both sexes, plasma, oral, CYP2D6 IM, mild HI, N=2, single 100 mg eliglustat tartrate oral, plasma, read-out: AUC (extrapolated to infinity), mean) was 346 ng·h/mL, the AUC(0-t) (both sexes, plasma, oral, CYP2D6 IM, mild HI, N=2, single 100 mg eliglustat tartrate oral, plasma, read-out: AUClast, mean) was 334 ng·h/mL and the Cmax (both sexes, plasma, oral, CYP2D6 IM, mild HI, N=2, single 100 mg eliglustat tartrate oral, plasma, read-out: Cmax, mean) was 35.9 ng/mL. The Vd/F (both sexes, plasma, oral, CYP2D6 IM, mild HI, N=2, single 100 mg eliglustat tartrate oral, plasma, read-out: Vz/F, mean) was 3910 L, the Tmax (both sexes, plasma, oral, CYP2D6 IM, mild HI, N=2, single 100 mg eliglustat tartrate oral, plasma, read-out: tmax) was 2 h and the AUC(0-inf) (both sexes, plasma, oral, CYP2D6 IM, moderate HI, N=1, single 100 mg eliglustat tartrate oral, plasma, read-out: AUC (extrapolated to infinity)) was 208 ng·h/mL. It also gave an AUC(0-inf) (both sexes, plasma, po, CYP2D6 EM, healthy, N=7, single 100 mg eliglustat tartrate oral, plasma, read-out: AUC (extrapolated to infinity), geometric mean) of 59.5 ng·h/mL, an AUC(0-inf) (both sexes, plasma, po, CYP2D6 EM, healthy, N=7, single 100 mg eliglustat tartrate oral, plasma, read-out: AUC (extrapolated to infinity), mean ± SD) of 69 ± 49.1 ng·h/mL and an AUC(0-t) (both sexes, plasma, po, CYP2D6 EM, healthy, N=7, single 100 mg eliglustat tartrate oral, plasma, read-out: AUClast, geometric mean) of 54.7 ng·h/mL. For the same molecule, the AUC(0-t) (both sexes, plasma, po, CYP2D6 EM, healthy, N=7, single 100 mg eliglustat tartrate oral, plasma, read-out: AUClast, mean ± SD) was 63.9 ± 47.1 ng·h/mL, the Cmax (both sexes, plasma, po, CYP2D6 EM, healthy, N=7, single 100 mg eliglustat tartrate oral, plasma, read-out: Cmax, geometric mean) was 8.81 ng/mL and the Cmax (both sexes, plasma, po, CYP2D6 EM, healthy, N=7, single 100 mg eliglustat tartrate oral, plasma, read-out: Cmax, mean ± SD) was 10.4 ± 7.4 ng/mL. The Vd/F (both sexes, plasma, po, CYP2D6 EM, healthy, N=7, single 100 mg eliglustat tartrate oral, plasma, read-out: Vz/F, geometric mean) was 14400 L, the Vd/F (both sexes, plasma, po, CYP2D6 EM, healthy, N=7, single 100 mg eliglustat tartrate oral, plasma, read-out: Vz/F, mean ± SD) was 16000 ± 6020 L and the Tmax (both sexes, plasma, po, CYP2D6 EM, healthy, N=7, single 100 mg eliglustat tartrate oral, plasma, read-out: tmax, median) was 2.5 h. The AUC(0-inf) (both sexes, plasma, po, CYP2D6 EM, mild HI, N=6, single 100 mg eliglustat tartrate oral, plasma, read-out: AUC (extrapolated to infinity), geometric mean) was 68.5 ng·h/mL, the AUC(0-inf) (both sexes, plasma, po, CYP2D6 EM, mild HI, N=6, single 100 mg eliglustat tartrate oral, plasma, read-out: AUC (extrapolated to infinity), mean ± SD) was 172 ± 293 ng·h/mL and the AUC(0-t) (both sexes, plasma, po, CYP2D6 EM, mild HI, N=6, single 100 mg eliglustat tartrate oral, plasma, read-out: AUClast, geometric mean) was 64.3 ng·h/mL. For the same molecule, the AUC(0-t) (both sexes, plasma, po, CYP2D6 EM, mild HI, N=6, single 100 mg eliglustat tartrate oral, plasma, read-out: AUClast, mean ± SD) was 166 ± 285 ng·h/mL, the Cmax (both sexes, plasma, po, CYP2D6 EM, mild HI, N=6, single 100 mg eliglustat tartrate oral, plasma, read-out: Cmax, geometric mean) was 10.7 ng/mL and the Cmax (both sexes, plasma, po, CYP2D6 EM, mild HI, N=6, single 100 mg eliglustat tartrate oral, plasma, read-out: Cmax, mean ± SD) was 22.4 ± 30.2 ng/mL. For the same molecule, the Vd/F (both sexes, plasma, po, CYP2D6 EM, mild HI, N=6, single 100 mg eliglustat tartrate oral, plasma, read-out: Vz/F, geometric mean) was 12700 L, the Vd/F (both sexes, plasma, po, CYP2D6 EM, mild HI, N=6, single 100 mg eliglustat tartrate oral, plasma, read-out: Vz/F, mean ± SD) was 20000 ± 15600 L and the Tmax (both sexes, plasma, po, CYP2D6 EM, mild HI, N=6, single 100 mg eliglustat tartrate oral, plasma, read-out: tmax, median) was 1.75 h. For the same molecule, the AUC(0-inf) (both sexes, plasma, po, CYP2D6 EM, moderate HI, N=7, single 100 mg eliglustat tartrate oral, plasma, read-out: AUC (extrapolated to infinity), geometric mean) was 307 ng·h/mL, the AUC(0-inf) (both sexes, plasma, po, CYP2D6 EM, moderate HI, N=7, single 100 mg eliglustat tartrate oral, plasma, read-out: AUC (extrapolated to infinity), mean ± SD) was 575 ± 696 ng·h/mL and the AUC(0-t) (both sexes, plasma, po, CYP2D6 EM, moderate HI, N=7, single 100 mg eliglustat tartrate oral, plasma, read-out: AUClast, geometric mean) was 293 ng·h/mL. It also gave an AUC(0-t) (both sexes, plasma, po, CYP2D6 EM, moderate HI, N=7, single 100 mg eliglustat tartrate oral, plasma, read-out: AUClast, mean ± SD) of 536 ± 642 ng·h/mL, a Cmax (both sexes, plasma, po, CYP2D6 EM, moderate HI, N=7, single 100 mg eliglustat tartrate oral, plasma, read-out: Cmax, geometric mean) of 24.8 ng/mL and a Cmax (both sexes, plasma, po, CYP2D6 EM, moderate HI, N=7, single 100 mg eliglustat tartrate oral, plasma, read-out: Cmax, mean ± SD) of 39.5 ± 43.4 ng/mL. For the same molecule, the Vd/F (both sexes, plasma, po, CYP2D6 EM, moderate HI, N=7, single 100 mg eliglustat tartrate oral, plasma, read-out: Vz/F, geometric mean) was 4090 L, the Vd/F (both sexes, plasma, po, CYP2D6 EM, moderate HI, N=7, single 100 mg eliglustat tartrate oral, plasma, read-out: Vz/F, mean ± SD) was 5840 ± 4130 L and the Tmax (both sexes, plasma, po, CYP2D6 EM, moderate HI, N=7, single 100 mg eliglustat tartrate oral, plasma, read-out: tmax, median) was 4 h. The AUC(0-t) (plasma, oral, CYP2D6 IM, healthy, N=1, single 100 mg eliglustat tartrate oral, plasma, read-out: AUClast) was 568 ng·h/mL, the Cmax (plasma, oral, CYP2D6 IM, healthy, N=1, single 100 mg eliglustat tartrate oral, plasma, read-out: Cmax) was 75.9 ng/mL and the Vd/F (plasma, oral, CYP2D6 IM, healthy, N=1, single 100 mg eliglustat tartrate oral, plasma, read-out: Vz/F) was 1790 L. The Tmax (plasma, oral, CYP2D6 IM, healthy, N=1, single 100 mg eliglustat tartrate oral, plasma, read-out: tmax) was 2.5 h, the AUC(0-t) (plasma, oral, CYP2D6 IM, moderate HI, N=1, single 100 mg eliglustat tartrate oral, plasma, read-out: AUClast) was 197 ng·h/mL and the Cmax (plasma, oral, CYP2D6 IM, moderate HI, N=1, single 100 mg eliglustat tartrate oral, plasma, read-out: Cmax) was 35.6 ng/mL. For the same molecule, the Vd/F (plasma, oral, CYP2D6 IM, moderate HI, N=1, single 100 mg eliglustat tartrate oral, plasma, read-out: Vz/F) was 3430 L and the Tmax (plasma, oral, CYP2D6 IM, moderate HI, N=1, single 100 mg eliglustat tartrate oral, plasma, read-out: tmax) was 1.52 h.

From patent publication US10888544B2, “Methods for treating Gaucher disease” (Genzyme Corporation, priority 2017, dated 2021)
